Where a name gives a salt, the structure may show the parent alone.
Experiments:
[1] = target: human 5-HT3 serotonin receptors (Homo sapiens (Human), UniProt P46098); assay: [3H]BRL 43694 competition binding; settings: CHO cell membranes, [3H]BRL 43694, Cheng Prusoff; read-out: h-5HT3 Ki
[2] = target: human α7 nAChRs transiently expressed in Xenopus laevis oocytes (Homo sapiens (Human), UniProt P36544); assay: Oocyte electrophysiology screen (TEVC); type: cell-based; settings: 0.01 mM test compound, peak current relative to 0.2 mM ACh
Summary of the method: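 Peak inward current from 0.01 mM compound, applied 30 s, is expressed relative to a 5 s 0.2 mM ACh reference response, in triplicate. Recordings used two-electrode voltage clamp at −80 mV in Xenopus oocytes with 90 s OR2 washes.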

Chain of human α7 nAChRs transiently expressed in Xenopus laevis oocytes (P36544 23-502 limits assumed): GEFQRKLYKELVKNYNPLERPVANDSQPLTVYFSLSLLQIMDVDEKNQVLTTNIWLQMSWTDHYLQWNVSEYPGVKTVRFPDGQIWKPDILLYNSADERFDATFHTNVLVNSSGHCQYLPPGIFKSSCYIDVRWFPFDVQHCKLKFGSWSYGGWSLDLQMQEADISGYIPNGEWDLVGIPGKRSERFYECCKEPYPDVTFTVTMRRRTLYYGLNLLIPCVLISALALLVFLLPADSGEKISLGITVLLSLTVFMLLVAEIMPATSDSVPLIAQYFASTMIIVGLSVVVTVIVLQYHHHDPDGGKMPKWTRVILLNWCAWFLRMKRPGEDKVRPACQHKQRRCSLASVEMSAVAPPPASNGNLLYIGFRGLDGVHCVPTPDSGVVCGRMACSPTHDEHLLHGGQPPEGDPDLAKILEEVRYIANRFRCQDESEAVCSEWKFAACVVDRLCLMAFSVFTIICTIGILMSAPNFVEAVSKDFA
Chain of human 5-HT3 serotonin receptors (P46098 24-478): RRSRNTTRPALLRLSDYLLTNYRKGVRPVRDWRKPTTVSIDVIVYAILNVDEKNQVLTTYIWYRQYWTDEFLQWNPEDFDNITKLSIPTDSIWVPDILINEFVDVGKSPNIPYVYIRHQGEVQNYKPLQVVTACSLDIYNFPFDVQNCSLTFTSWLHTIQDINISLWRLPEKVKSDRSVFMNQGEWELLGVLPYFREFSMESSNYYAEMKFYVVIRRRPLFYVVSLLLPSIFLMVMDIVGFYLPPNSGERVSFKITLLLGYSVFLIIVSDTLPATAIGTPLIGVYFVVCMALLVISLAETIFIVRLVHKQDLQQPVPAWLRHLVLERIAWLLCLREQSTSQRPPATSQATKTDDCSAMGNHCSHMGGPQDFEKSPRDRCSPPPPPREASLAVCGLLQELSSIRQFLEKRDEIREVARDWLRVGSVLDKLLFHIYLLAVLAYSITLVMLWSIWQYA

Molecule | Ki [1] [nM] | % ACh @ 10 μM Oocyte [2] [% ACh]
CC1(C)[C@H](NC(=O)c2cc3ccc(Cl)c(C(F)(F)F)c3s2)C2CCN1CC2 [(R)-111, (R)-6-chloro-N-(2,2-dimethylquinuclidin-3-yl)-7-(trifluoromethyl)benzo[b]thiophene-2-carboxamide hydrochloride] | > 10000 | –
Cc1ccc2cc(C(=O)N[C@@H]3C4CCN(CC4)C3(C)C)sc2c1C(F)(F)F [(R)-113, (R)—N-(2,2-dimethylquinuclidin-3-yl)-6-methyl-7-(trifluoromethyl)benzo[b]thiophene-2-carboxamide hydrochloride] | > 10000 | –
CC1(C)[C@H](NC(=O)c2cc3cccc(C4CC4)c3s2)C2CCN1CC2 [(R)-118, (R)-7-cyclopropyl-N-(2,2-dimethylquinuclidin-3-yl)benzo[b]thiophene-2-carboxamide hydrochloride] | 230 | –
CC1(C)[C@H](NC(=O)c2cc3cc(F)c(Cl)cc3s2)C2CCN1CC2 [(R)-123, (R)-6-chloro-N-(2,2-dimethylquinuclidin-3-yl)-5-fluorobenzo[b]thiophene-2-carboxamide hydrochloride] | > 10000 | –
CC1(C)[C@H](NC(=O)c2cc3cc(F)c(Cl)c(F)c3s2)C2CCN1CC2 [(R)-125, (R)-6-chloro-N-(2,2-dimethylquinuclidin-3-yl)-5,7-difluorobenzo[b]thiophene-2-carboxamide hydrochloride] | > 10000 | –
Cc1cccc2cc(C(=O)N[C@@H]3C4CCN(CC4)C3(C)C)sc12 [(R)-126, (R)—N-(2,2-dimethylquinuclidin-3-yl)-7-methylbenzo[b]thiophene-2-carboxamide hydrochloride] | 170 | –
CC1(C)[C@H](NC(=O)c2cc3cccc(CC(F)(F)F)c3s2)C2CCN1CC2 [(R)-127, (R)—N-(2,2-dimethylquinuclidin-3-yl)-7-(2,2,2-trifluoroethyl)benzo[b]thiophene-2-carboxamide hydrochloride] | 1100 | –
CC1(C)[C@H](NC(=O)c2cc3cccc(-c4nccs4)c3s2)C2CCN1CC2 [(R)-129, (R)—N-(2,2-dimethylquinuclidin-3-yl)-7-(thiazol-2-yl)benzo[b]thiophene-2-carboxamide hydrochloride] | 440 | –
CC1(C)[C@H](NC(=O)c2cc3cccc(-c4ccccc4)c3s2)C2CCN1CC2 [(R)-132, (R)—N-(2,2-dimethylquinuclidin-3-yl)-7-phenylbenzo[b]thiophene-2-carboxamide hydrochloride] | 100 | –
CC1(c2cccc3cc(C(=O)N[C@@H]4C5CCN(CC5)C4(C)C)sc23)CC1 [(R)-133, (R)—N-(2,2-dimethylquinuclidin-3-yl)-7-(1-methylcyclopropyl)benzo[b]thiophene-2-carboxamide hydrochloride] | 400 | –
Cc1ccc2cc(C(=O)N[C@@H]3C4CCN(CC4)C3(C)C)sc2c1C1CC1 [(R)-140, (R)-7-cyclopropyl-N-(2,2-dimethylquinuclidin-3-yl)-6-methylbenzo[b]thiophene-2-carboxamide hydrochloride] | 22000 | –
COCc1cccc2cc(C(=O)N[C@@H]3C4CCN(CC4)C3(C)C)sc12 [(R)-143, (R)—N-(2,2-dimethylquinuclidin-3-yl)-7-(methoxymethyl)benzo[b]thiophene-2-carboxamide hydrochloride] | 740 | –
O=C(N[C@@H]1C2CCN(CC2)C12CC2)c1cc2ccc(Cl)c(C(F)(F)F)c2s1 [(R)-152, (R)-6-chloro-N-(1′-azaspiro[cyclopropane-1,2′-bicyclo[2.2.2]octan]-3′-yl)-7-(trifluoromethyl)benzo[b]thiophene-2-carboxamide hydrochloride] | > 10000 | –
COc1ccc2cc(C(=O)N[C@@H]3C4CCN(CC4)C34CC4)sc2c1Cl [(R)-154, (R)-7-chloro-6-methoxy-N-(1′-azaspiro[cyclopropane-1,2′-bicyclo[2.2.2]octan]-3′-yl)benzo[b]thiophene-2-carboxamide hydrochloride] | 6200 | –
N#Cc1cccc2cc(C(=O)N[C@@H]3C4CCN(CC4)C34CC4)sc12 [(R)-160, (R)-7-cyano-N-(1′-azaspiro[cyclopropane-1,2′-bicyclo[2.2.2]octan]-3′-yl)benzo[b]thiophene-2-carboxamide hydrochloride] | 260 | –
O=C(N[C@@H]1C2CCN(CC2)C12CC2)c1cc2cccc(C3CC3)c2s1 [(R)-165, (R)-7-cyclopropyl-N-(1′-azaspiro[cyclopropane-1,2′-bicyclo[2.2.2]octan]-3′-yl)benzo[b]thiophene-2-carboxamide hydrochloride] | 200 | –
Cc1ccc2cc(C(=O)N[C@H]3C4CCN(CC4)C3(C)C)sc2c1 [(S)-15, (S)—N-(2,2-dimethylquinuclidin-3-yl)-6-methylbenzo[b]thiophene-2-carboxamide hydrochloride] | – | 3

Molecule | Ki [1] [nM] | % ACh @ 10 μM Oocyte [2] [% ACh]
Cc1ccc2sc(C(=O)N[C@H]3C4CCN(CC4)C3(C)C)cc2c1 [(S)-16, (S)—N-(2,2-dimethylquinuclidin-3-yl)-5-methylbenzo[b]thiophene-2-carboxamide hydrochloride] | – | 2
CC1(C)[C@@H](NC(=O)c2cc3cc(C(F)(F)F)ccc3s2)C2CCN1CC2 [(S)-17, (S)—N-(2,2-dimethylquinuclidin-3-yl)-5-(trifluoromethyl)benzo[b]thiophene-2-carboxamide hydrochloride] | – | 1
CC1(C)[C@@H](NC(=O)c2cc3ccc(C4CC4)cc3s2)C2CCN1CC2 [(S)-18, (S)-6-cyclopropyl-N-(2,2-dimethylquinuclidin-3-yl)benzo[b]thiophene-2-carboxamide hydrochloride] | – | 1
CC1(C)[C@@H](NC(=O)c2cc3cc(C4CC4)ccc3s2)C2CCN1CC2 [(S)-19, (S)-5-cyclopropyl-N-(2,2-dimethylquinuclidin-3-yl)benzo[b]thiophene-2-carboxamide hydrochloride] | – | 3
COc1ccc2cc(C(=O)N[C@H]3C4CCN(CC4)C3(C)C)sc2c1 [(S)-20, (S)—N-(2,2-dimethylquinuclidin-3-yl)-6-methoxybenzo[b]thiophene-2-carboxamide hydrochloride] | – | 5
COc1ccc2sc(C(=O)N[C@H]3C4CCN(CC4)C3(C)C)cc2c1 [(S)-21, (S)—N-(2,2-dimethylquinuclidin-3-yl)-5-methoxybenzo[b]thiophene-2-carboxamide hydrochloride] | – | 1
CC1(C)[C@@H](NC(=O)c2cc3ccoc3cn2)C2CCN1CC2 [(S)-22, (S)—N-(2,2-dimethylquinuclidin-3-yl)furo[2,3-c]pyridine-5-carboxamide hydrochloride] | – | 25
CC1(C)[C@@H](NC(=O)c2cc3c(cn2)OCCO3)C2CCN1CC2 [(S)-23, (S)—N-(2,2-dimethylquinuclidin-3-yl)-2,3-dihydro-[1,4]dioxino[2,3-c]pyridine-7-carboxamide hydrochloride] | – | 0
CC1(C)[C@@H](NC(=O)c2cnn3ncccc23)C2CCN1CC2 [(S)-27, (S)—N-(2,2-dimethylquinuclidin-3-yl)pyrazolo[1,5-b]pyridazine-3-carboxamide hydrochloride] | – | 0
CC1(C)[C@@H](NC(=O)c2cc3cccnc3s2)C2CCN1CC2 [(S)-28, (S)—N-(2,2-dimethylquinuclidin-3-yl)thieno[2,3-b]pyridine-2-carboxamide hydrochloride] | – | 1
CC1(C)[C@@H](NC(=O)c2nc3ccccc3s2)C2CCN1CC2 [(S)-29, (S)—N-(2,2-dimethylquinuclidin-3-yl)benzo[d]thiazole-2-carboxamide hydrochloride] | – | 2
O=C(N[C@H]1C2CCN(CC2)C12CC2)c1cc2ccoc2cn1 [(S)-75, (S)—N-(1′-azaspiro[cyclopropane-1,2′-bicyclo[2.2.2]octan]-3′-yl)furo[2,3-c]pyridine-5-carboxamide hydrochloride] | – | 14
O=C(N[C@H]1C2CCN(CC2)C12CC2)c1cc2c(cn1)OCCO2 [(S)-76, (S)—N-(1′-azaspiro[cyclopropane-1,2′-bicyclo[2.2.2]octan]-3′-yl)-2,3-dihydro-[1,4]dioxino[2,3-c]pyridine-7-carboxamide hydrochloride] | – | 1
O=C(N[C@H]1C2CCN(CC2)C12CC2)c1cnn2ncccc12 [(S)-80, (S)—N-(1′-azaspiro[cyclopropane-1,2′-bicyclo[2.2.2]octan]-3′-yl)pyrazolo[1,5-b]pyridazine-3-carboxamide hydrochloride] | – | 2
O=C(N[C@H]1C2CCN(CC2)C12CC2)c1cc2cccnc2s1 [(S)-81, (S)—N-(1′-azaspiro[cyclopropane-1,2′-bicyclo[2.2.2]octan]-3′-yl)thieno[2,3-b]pyridine-2-carboxamide hydrochloride] | – | 1
O=C(N[C@H]1C2CCN(CC2)C12CC2)c1nc2ccccc2s1 [(S)-82, (S)—N-(1′-azaspiro[cyclopropane-1,2′-bicyclo[2.2.2]octan]-3′-yl)benzo[d]thiazole-2-carboxamide hydrochloride] | – | 2
(R)-N-(2,2-dimethylquinuclidin-3-yl)-6-(trifluoromethoxy)benzo[b]thiophene-2-carboxamide hydrochloride [(R)-209] | – | 1
